Measured values taken from ChEMBL document CHEMBL1145682, “Bioactive compounds from Taiwania cryptomerioides” (J Nat Prod, 1997).
≈ marks a conversion by molar mass, not a printed value.

Legend:
MCF7 = assay: Cytotoxicity against human MCF7 cells after 7 days by MTT assay; format: functional; details: MCF7, 168 h, read-out: ED50 (the source's name)
[1] = Toxicity in Artemia salina; format: organism-based; details: in vivo
A549 = assay: Cytotoxicity against human A549 cells after 7 days by MTT assay; format: functional; details: A549, 168 h, read-out: ED50 (the source's name)
HT-29 = assay: Cytotoxicity against human HT-29 cells after 7 days by MTT assay; format: functional; details: HT-29, 168 h, read-out: ED50 (the source's name)
Aedes aegypti = assay: Insecticidal activity against yellow fever mosquito larvae; format: functional

SMILES	EC50 (MCF7)	LC50 [1]	EC50 (A549)	EC50 (HT-29)	LC50 (Aedes aegypti)
CC(C)[C@@H]1CC[C@@](C)(O)[C@]2(O)[C@@H](O)C[C@@H](C)C[C@@H]12	41 µg/mL (≈ 160 µM)	84.8 µg/mL (≈ 331 µM)	13.3 µg/mL (≈ 52 µM)	12 µg/mL (≈ 46.8 µM)	> 250 µg/mL
CC1=C[C@@H]2[C@@H](CC1=O)[C@](C)(O)CC[C@H]2C(C)C	30.1 µg/mL (≈ 127 µM)	200 µg/mL (≈ 846 µM)	32.2 µg/mL (≈ 136 µM)	32.5 µg/mL (≈ 138 µM)	50 µg/mL (≈ 212 µM)
O=C1OCc2c1cc1ccc3c(c1c2-c1ccc2c(c1)OCO2)OCO3 [HELIOXANTHIN]		> 500 µg/mL			3 µg/mL (≈ 8.61 µM)
CC1=C[C@@H]2[C@@H](CC1)[C@](C)(O)CC[C@H]2C(C)C	13.1 µg/mL (≈ 58.7 µM)	9.4 µg/mL (≈ 42.3 µM)	11.1 µg/mL (≈ 49.9 µM)	0.778 µg/mL (≈ 3.5 µM)	2 µg/mL (≈ 8.99 µM)
CC(C)c1cc2c(cc1O)[C@@]1(C)CCCC(C)(C)[C@@H]1CC2 [FERRUGINOL]	23.4 µg/mL (≈ 81.8 µM)	42.3 µg/mL (≈ 148 µM)	6.47 µg/mL (≈ 22.6 µM)	6.43 µg/mL (≈ 22.4 µM)	3 µg/mL (≈ 10.5 µM)
COc1cccc2c1C(=O)c1c(O)c3c(c(O)c1C2=O)C[C@@](O)(C(=O)CO)C[C@@H]3O[C@H]1C[C@H](N)[C@H](O)[C@H](C)O1 [DOXORUBICIN]	0.189 µg/mL (≈ 0.348 µM)		0.00499 µg/mL (≈ 0.00918 µM)	0.0357 µg/mL (≈ 0.0657 µM)	
CC1=C[C@H]2[C@@H](C(C)C)CC[C@@](C)(O)[C@H]2CC1=O	12.9 µg/mL (≈ 54.5 µM)	54.4 µg/mL (≈ 230 µM)	8.78 µg/mL (≈ 37.1 µM)	7.85 µg/mL (≈ 33.2 µM)	200 µg/mL (≈ 846 µM)
